Measured values reported in paper PMC10994559 (PLOS Neglected Tropical Diseases, 2024).
Like-named read-outs stand apart in the source and are kept apart here.

Experiments:
[1] = tested on: L. major promastigotes; experiment: L. major promastigote viability, resazurin reduction; type: cell-based, Leishmania major; conditions: Leishmania major, read-out: viability, L.major promastigote (25 µM)
Text: (§1) The infectivity of the parasites was boosted by passaging in Balb/c mice and culturing the infected lymph nodes after six weeks. L. infantum (MHOM / BR / 76 / M4192) parasite was passaged in the same media formulation with 0.5% urine.

[2] = tested on: L. infantum promastigotes; experiment: L. infantum promastigote viability, resazurin reduction; type: cell-based, Leishmania infantum; conditions: Leishmania infantum, sheet LTC_compound_viability, value ± spread; for viability at 2.5 µM: read-out: viability, L. infantum promastigote (2.5 µM); for viability at 25 µM: read-out: viability, L. infantum promastigote (25 µM)
Text: as §1

[3] = tested on: L. major axenic amastigotes; experiment: L. major axenic amastigote viability, resazurin reduction; conditions: Leishmania major, read-out: viability, L.major amastigote (25 µM)
Procedure, shortened: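 Axenic L. major LV561 amastigotes were grown in Grace medium with 20% FCS, pH 5.4, at 33°C and seeded at 0.5x10^5 cells/well with compounds for 72 h. Resazurin was then added for 6 h and fluorescence read at ex 550/em 590 nm; hits were retested at 2.5 μM.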

[4] = tested on: T. brucei brucei BSF; experiment: T. brucei BSF viability, resazurin reduction; type: cell-based, Trypanosoma brucei brucei; conditions: Trypanosoma brucei; for viability at 25 µM: read-out: viability, T.brucei (25 µM)
[5] = tested on: T. cruzi trypomastigotes; experiment: T. cruzi viability, resazurin reduction; type: cell-based, Trypanosoma cruzi; conditions: Trypanosoma cruzi; for viability at 2.5 µM: read-out: viability, T.cruzi (2.5 µM); for viability at 25 µM: read-out: viability, T.cruzi (25 µM)
Procedure, shortened: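 Y-strain trypomastigotes kept in supplemented liver infusion tryptose broth with 10% FCS, pH 7.2, at 28°C. Viability by fluorescence resazurin reduction; single-point screen at 2.5 μM, then 18-concentration dose response. Amphotericin B as control drug.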

[6] = tested on: E. histolytica; experiment: E. histolytica viability, ATP luminescence (Cell titer glo); type: cell-based, Entamoeba histolytica; conditions: Entamoeba histolytica; for viability at 2.5 µM: read-out: viability, E.histolytica (2.5 µM); for viability at 25 µM: read-out: viability, E.histolytica (25 µM)
Procedure, shortened: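 E. histolytica strain B2-5 at 2.5x10^4 cells/ml was exposed to compound for 48 h at 37 °C under anaerobic conditions, with viability read as ATP luminescence (CellTiter-Glo). The primary screen used 25 μM in triplicate, and follow-up potency runs used 9–16-point ranges spanning 0.01–100 μM.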

[7] = Cytotoxicity assay J774, resazurin reduction; type: cell-based, murine; conditions: mouse, J774 macrophage cells; for viability at 72 h, 2.5 µM: read-out: viability, J774 (2.5 µM); for viability at 72 h, 25 µM: read-out: viability, J774 (25 µM)
Procedure, shortened: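 J774 and HepG2 cells were seeded at 0.5x10^5 cell/well and exposed to serially diluted compounds for 72 h at 37°C, 5% CO2. Viability was read by fluorescence resazurin reduction (λEx 550 nm, λEm 590 nm).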

[8] = tested on: intracellular L. infantum amastigotes; experiment: Parasite rescue assay (intramacrophage, J774 infected with L. infantum); type: cell-based, Leishmania infantum; conditions: J774, 25 µM; intracellular amastigote; read-out: viability, intracellular L. major amastigote (25 µM)
[9] = 2.5 µM, read-out: viability, T.brucei (2.5 µM)

SMILES	viability at 25 µM ([1]; 72 h) [%]	viability at 25 µM ([1]; 25 µM) [%]	viability at 2.5 µM [2] [%]	viability at 25 µM [2] [%]	viability at 25 µM [3] [%]	viability at 2.5 µM [4, 9] [%]	viability at 25 µM [4] [%]	viability at 2.5 µM [5] [%]	viability at 25 µM [5] [%]	viability at 2.5 µM [6] [%]	viability at 25 µM [6] [%]	viability at 72 h, 2.5 µM [7] [%]	viability at 72 h, 25 µM [7] [%]	melting point [°C]	viability at 25 µM [8] [%]	viability at 2.5 µM ([4]; 72 h, read-out: Residual viability, T.brucei (2.5 µM), BSF, 2.5 µM, 72 h) [%]
N[C@@H](Cc1ccccc1)[C@@H](O)CNc1ccc(F)cc1 [LTC-1026, (2S,3S)-3-Amino-1-((4-fluorophenyl)amino)-4-phenylbutan-2-ol]	93.3 ± 1.34	34.1 ± 3.37	84.16 ± 0.61	56.98 ± 0.29	59.5 ± 7.56	71.2 ± 5.23	2.26 ± 0.92	58.6 ± 1.12	57.8 ± 6.73	65.6 ± 10.1	113 ± 30.5	94.6 ± 3.96	-0.01 ± 0.89	88 to 90	102 ± 4.55	–
N[C@@H](Cc1ccccc1)[C@@H](O)CNc1ccc(OC(F)(F)F)cc1 [LTC-1028, (2S,3S)-3-Amino-4-phenyl-1-((4-(trifluoromethoxy)phenyl)amino)butan-2-ol]	81.6 ± 2	0.32 ± 0.34	78.3 ± 1.53	0.58 ± 0.24	59.3 ± 3.42	19.7 ± 4.81	2.01 ± 0.92	61 ± 0.78	12.4 ± 0.9	71.9 ± 4.72	37.8 ± 19.9	97.4 ± 5.26	-0.47 ± 0.78	112 to 114	79.1 ± 22	–
N[C@@H](Cc1ccccc1)[C@@H](O)CNc1cccc(C(F)(F)F)c1 [LTC-1029, (2S,3S)-3-Amino-4-phenyl-1-((3-(trifluoromethyl)phenyl)amino)butan-2-ol]	88.9 ± 5.45	-0.13 ± 0.19	82.2 ± 2.25	0.37 ± 0.05	67.9 ± 2.07	-0.97 ± 0.28	2.21 ± 0.85	56.8 ± 2.34	6.68 ± 2.95	70.3 ± 18.1	15.4 ± 5.25	94.9 ± 4.03	91.9 ± 10.1	72 to 74	76.8 ± 12.2	< 10
